Results published in PubChem BioAssay AID1996.
Converted amounts (≈) assume the structure as drawn.

conditions: buffer; pH 7.4; 200.0 µM

| SMILES | solubility kinetic |
| --- | --- |
| CN(C(=O)CN1CCN(c2ccccc2F)CC1)C1CCCc2ccccc21 (configuration not stated) | > 0.0572 mg/mL |
| CC(OC(=O)c1cccc(N(C)C)c1)C(=O)N1CCc2ccccc2C1 (configuration not stated) | 0.0373 mg/mL (≈ 106 µM) |
| CC1CCN(C(=O)CNC(=O)c2cccc(OC(F)F)c2)CC1 | > 0.049 mg/mL |
| Cc1c(C=O)c2ccccc2n1Cc1ccccc1F | 0.0204 mg/mL (≈ 76.3 µM) |
| Cc1ccc(NC(=O)NCc2ccccn2)cc1Cl | > 0.0414 mg/mL |
| Cc1cccc(N2CCN(C(=O)c3oc4ccc(Br)cc4c3C)CC2)c1C | 0.0043 mg/mL (≈ 10.1 µM) |
| Cc1ccc(NC(=O)COC(=O)C2=NNC(=O)CC2)c(Br)c1 | > 0.0552 mg/mL |
| Nn1c(C2CCC2)nc2ccccc2c1=O | > 0.0323 mg/mL |
| O=C(NCCCn1ccnc1)c1ccc(Cl)cc1 | > 0.0396 mg/mL |
| C=CCc1ccccc1Oc1cc(OC)nc(N)n1 | > 0.0386 mg/mL |
| C=CCc1ccccc1OCC(O)CNC(=O)c1ccccc1C(=O)O (configuration not stated) | > 0.0533 mg/mL |
| CCC1=C(C)CN(C(=O)NCCc2ccc(S(=O)(=O)NC(=O)NC3CCC(C)CC3)cc2)C1=O (configuration not stated) | > 0.0736 mg/mL |
| COc1ccc(C(=O)NC(C)CCc2ccccc2)cc1 (configuration not stated) | 0.0419 mg/mL (≈ 148 µM) |
| CCc1cccc2c1NC1(CCCC1)CC2C.Cl (configuration not stated) | < 0.0006 mg/mL |
| CC(=O)C1=C(C)NC(=S)NC1c1cc([N+](=O)[O-])ccc1O (configuration not stated) | > 0.0461 mg/mL |
| OCCN1CCN(CC(O)C(F)(F)F)CC1 (configuration not stated) | > 0.0363 mg/mL |
| Cc1cc2ncn(S(=O)(=O)c3ccc(F)cc3)c2cc1C | 0.0318 mg/mL (≈ 104 µM) |
| COc1ccc(NC(=O)/C=C/c2ccc(OC)c(OC)c2)cn1 | 0.0113 mg/mL (≈ 35.9 µM) |
| CC(=O)c1c(C)[nH]c(C(=O)COC(=O)COc2ccccc2)c1C | 0.0163 mg/mL (≈ 49.5 µM) |
| COc1cccc(CN2CCCCC2C(=O)O)c1 (configuration not stated) | > 0.0374 mg/mL |
| COc1cccc(C(=O)NC2CC(C)(C)NC(C)(C)C2)c1OC | > 0.0481 mg/mL |
| COc1cc(Cl)c(C)cc1NC(=O)CCNC(=O)c1ccco1 | > 0.0505 mg/mL |
| CN(CC(=O)Nc1ccc(Cl)cc1)C(=O)CCC1CCCC1 | 0.0004 mg/mL (≈ 1.24 µM) |
| CCOc1ccc(S(=O)(=O)N2CCN(c3ccccn3)CC2)cc1 | 0.0016 mg/mL (≈ 4.61 µM) |
| CCCC(=O)Nc1ccccc1NC(=O)c1ccc(OC(C)=O)cc1 | 0.0475 mg/mL (≈ 140 µM) |
| Cc1ccccc1NC(=O)Cc1cccs1 | > 0.0347 mg/mL |
| COC(=O)CCC(=O)Nc1cc(Cl)cc(Cl)c1 | 0.0323 mg/mL (≈ 117 µM) |

| SMILES | solubility kinetic |
| --- | --- |
| Cc1ccc(Nc2ccncc2S(N)(=O)=O)cc1 | 0.033 mg/mL (≈ 125 µM) |
| CC(C)C(=O)Nc1ccc2oc(=O)ccc2c1 | 0.0335 mg/mL (≈ 145 µM) |
| CC(=O)Cn1c(=O)oc2ccccc21 | 0.0271 mg/mL (≈ 142 µM) |
| CNC(=O)COC(=O)/C=C/c1cccs1 | > 0.0338 mg/mL |
| CCCc1cc(C(=O)Nc2cc(C)ccc2O)no1 | 0.0012 mg/mL (≈ 4.61 µM) |
| N=C(N)N1CCN(Cc2ccccc2)CC1.O=S(=O)(O)O | 0.0067 mg/mL |
| CCCOc1ccc(CSC(=N)N)cc1C(=O)OC.Cl | 0.0426 mg/mL |
| C=CCNC(=O)/C(C#N)=C/c1ccc(C(=O)O)cc1 | > 0.0384 mg/mL |
| O=S(=O)(c1ccc(Br)cc1Cl)N1CCCN(c2ccc(C(F)(F)F)cn2)CC1 | 0.003 mg/mL (≈ 6.02 µM) |
| Cc1cccnc1NC(=O)c1sc2ccccc2c1Cl | 0.003 mg/mL (≈ 9.91 µM) |
| CC1CCCN(C(=O)C2CC(=O)N(c3ccc(Cl)cc3)C2)C1 (configuration not stated) | > 0.0481 mg/mL |
| CN(C)S(=O)(=O)c1cc(C(=O)NCc2ccccc2)c(Cl)cc1Cl | 0.0471 mg/mL (≈ 122 µM) |
| Cc1nn(C)cc1S(=O)(=O)Nc1ccc(C(F)(F)F)cc1 | > 0.0479 mg/mL |
| CN(Cc1ccccc1)S(=O)(=O)c1ccccc1[N+](=O)[O-] | 0.0153 mg/mL (≈ 49.9 µM) |
| Cc1cccc2c(=O)cc(C(F)(F)F)[nH]c12 | > 0.0341 mg/mL |
| CC(C)c1ccc(OCC(=O)NC2=NCCS2)cc1 | 0.0158 mg/mL (≈ 56.8 µM) |
| COc1ccc(NC(=O)[C@@H]2CCCN2S(=O)(=O)c2ccccc2F)cc1S(=O)(=O)N1CCCCC1 | 0.0371 mg/mL (≈ 70.6 µM) |
| OCCCC1CCCCN1Cc1nc(Cc2ccccc2Cl)no1 (configuration not stated) | 0.0434 mg/mL (≈ 124 µM) |
| COc1ccc(Br)cc1CN1CCN(c2ncccn2)CC1 | 0.0388 mg/mL (≈ 107 µM) |
| O=C(Nc1ccccc1)O/N=C/c1ccc(F)cc1 | 0.0128 mg/mL (≈ 49.6 µM) |
| S=C1NCN(C2CCCCC2)CN1c1ccccc1 | > 0.0413 mg/mL |
| CCc1ccc(C(=O)COC(=O)CNC(=O)Cc2ccccc2)cc1 | 0.0366 mg/mL (≈ 108 µM) |
| C=CCn1c(C)cc(C(=O)COc2ccc(N(C)S(=O)(=O)c3ccc(NC(C)=O)cc3)cc2)c1C | 0.0093 mg/mL (≈ 18.8 µM) |
| N#C/C(=C\c1c(N2CCCCCC2)nc2ccccn2c1=O)C(N)=O | > 0.0506 mg/mL |
| COc1cccc(C(=O)O/N=C(\N)c2ccc(C)cc2)c1 | 0.0102 mg/mL (≈ 35.9 µM) |
| Cc1ccc(OCC(=O)O/N=C(\N)c2ccncc2)cc1C | 0.0186 mg/mL (≈ 62.1 µM) |
| CN(C(=O)COC(=O)c1cc2ccccc2oc1=O)C1CCCCC1 | 0.0477 mg/mL (≈ 139 µM) |

Next, values leading:

| solubility kinetic | SMILES |
| --- | --- |
| 0.0007 mg/mL (≈ 2.08 µM) | COc1ccccc1C(=O)Nc1ccc(NC(=O)c2ccco2)cn1 |
| > 0.0493 mg/mL | CC1=NN(C(=O)c2ccccc2C)C(O)(c2ccc(Cl)cc2)C1 (configuration not stated) |
| 0.0003 mg/mL (≈ 0.994 µM) | Cc1ccc(Nc2nc(-c3cccnc3)cs2)cc1Cl |
| > 0.0471 mg/mL | C/C(CC(=O)Nc1cccc(F)c1)=N\NC(=O)c1ccncc1 |
| 0.0032 mg/mL (≈ 9.83 µM) | Cn1c(SCC(=O)Nc2ccccc2)nc2ccccc2c1=O |
| 0.0343 mg/mL (≈ 146 µM) | N/C(COc1cc(Cl)cc(Cl)c1)=N\O |
| 0.0461 mg/mL (≈ 143 µM) | CC(C1CC1)N(Cc1ccccc1)C(=O)NC(=O)c1ccccc1 (configuration not stated) |
| 0.0013 mg/mL (≈ 4.52 µM) | Cc1c(C)c(C)c(CO/N=C/c2cccs2)c(C)c1C |
| 0.031 mg/mL (≈ 107 µM) | O=C(COc1ccc(Cl)cc1Cl)N1CCNC1=O |
| 0.0171 mg/mL (≈ 50.5 µM) | CCOC(=O)/C=C1\SCC(=O)N1CC(=O)Nc1cccc(F)c1 |
| 0.0045 mg/mL (≈ 13.6 µM) | CC(=O)c1cccc(Nc2nc(-c3sc(N)nc3C)cs2)c1 |
| 0.0315 mg/mL (≈ 135 µM) | Cc1cccc(OCC(=O)NC2CCCC2)c1 |
| > 0.0419 mg/mL | COCCNC(=O)COc1cccc2c1OC(C)(C)C2 |
| 0.0045 mg/mL (≈ 15 µM) | COC(=O)c1ccc(NC(=O)CCOc2ccccc2)cc1 |
| 0.0011 mg/mL (≈ 2.88 µM) | CCCc1cc(=O)[nH]c(SCC(=O)Nc2ccc(Br)cc2)n1 |
| > 0.0331 mg/mL | Cc1cc(=O)[nH]c(-c2ccc(Cl)cc2)n1 |
| > 0.0651 mg/mL | CCN(C(=O)COC(=O)c1cc(OC)ccc1Br)C1CCS(=O)(=O)C1 (configuration not stated) |

| solubility kinetic | SMILES |
| --- | --- |
| > 0.0454 mg/mL | Cc1ccc[n+](CC(=O)N2CCCc3ccccc32)c1.[Cl-] |
| > 0.0341 mg/mL | O=C1NCC(COc2ccc(Cl)cc2)O1 (configuration not stated) |
| 0.001 mg/mL (≈ 2.81 µM) | COc1ccc(COC(=O)Nc2c(SC)nsc2SC)cc1 |
| > 0.0512 mg/mL | CC(=O)Nc1cccc(NC(=O)CSc2nnc3ccccn23)c1 |
| > 0.0499 mg/mL | Cc1ccc(NC(=O)NC(=O)CN2CCC(C(N)=O)CC2)c(C)c1 |
| 0.0127 mg/mL (≈ 36.4 µM) | CC(=O)Nc1ccc(NC(=O)CSCc2ccccc2Cl)cc1 |
| > 0.0444 mg/mL | Cc1c(Cl)cccc1NC(=O)CSc1nccn1C |
| > 0.0532 mg/mL | O=C(Nc1ccc(F)cc1)c1ccc(S(=O)(=O)N2CCOCC2)o1 |
| 0.0373 mg/mL (≈ 131 µM) | CC1(C)CC(=O)C=C(Nc2cccc(Cl)c2Cl)C1 |
| > 0.0498 mg/mL | Cc1c(Cl)cccc1NC(=O)CC(Cc1ccccc1)C(=O)O (configuration not stated) |
| 0.0176 mg/mL (≈ 60.6 µM) | CCc1ccc(CNC(=O)C(=O)NCC2CCCO2)cc1 (configuration not stated) |
| 0.0455 mg/mL (≈ 135 µM) | CCCCCNS(=O)(=O)c1cc2c3c(c1)CCC(=O)N3CCC2 |
| 0.0347 mg/mL (≈ 131 µM) | O=C(NCCc1c[nH]c2ccccc12)c1ccccc1 |
| 0.012 mg/mL (≈ 40.6 µM) | Cc1ccsc1C(=O)OCC(=O)NC1CCCCC1C (configuration not stated) |
| > 0.0471 mg/mL | COC(=O)C[N+](C)(C)C/C=C\c1ccccc1.[Br-] |
| 0.0474 mg/mL (≈ 146 µM) | Oc1ccccc1C=NCCCCCCN=Cc1ccccc1O |
